{"source": "patent US10683483B2", "about": "“Microfabricated platform for mimicking the liver zonation and evaluating method of zonal toxicity using thereof” (Korea Research Institute of Chemical Technology, priority 2019, dated 2020)", "key": {"[1]": {"test_system": "HepaRG cells", "assay": "Hepatotoxicity evaluation by dead cell staining (EthD-1) in the microfabricated platform for mimicking the liver zonation", "type": "cell-based", "settings": "10 mM acetaminophen, 48 hours", "protocol": "First, an impermeable fluorescent substance was formed in the inside of HepaRG cells by using cell tracker deep red fluorescent solution in order to trace the location of HepaRG cells. A microfabricated platform for mimicking the liver zonation was prepared by the same conditions and same manners as described in Example 1 by using the prepared HepaRG cells. […] As a control, a culture medium without acetaminophen was used. Upon completion of the culture, the medium was removed and the dead cells were stained with EthD-1 (ethidium homodimer-1)."}, "[2]": {"test_system": "HepaRG cells", "assay": "Hepatotoxicity evaluation by cell viability (cell counting kit-8) of pieces of the microfabricated platform for mimicking the liver zonation", "type": "cell-based", "settings": "48 hours; acetaminophen 12.5-200 mM, tamoxifen 31.2-500 μM; pieces along CHIR gradient", "protocol": "The 96-well plate was cultured at 37° C. for 48 hours. Upon completion of the reaction, cells were washed with PBS and the absorbance of the cells was measured using cell counting kit-8 (Dojindo Molecular Technologies) according to the manufacturer's protocol."}, "[3]": {"test_system": "liver tissue", "assay": "Hepatotoxicity in liver tissue of a rat model (H&E staining)", "type": "in vivo, Sprague Dawley rats", "settings": "oral, once a day for 3 days; acetaminophen 1,000 mg/kg, tamoxifen 60 mg/kg", "source_text": "After the administration, the animals were sacrificed, from which the liver tissues were obtained. The obtained liver tissues were stained with H&E, followed by observation under a microscope."}}}
{"smiles": "CC(=O)Nc1ccc(O)cc1", "note": "[acetaminophen]", "values": [{"measurement": "EthD-1 staining of dead cells (fluorescence intensity) by zone", "setting": "[1]", "result": "high fluorescence intensity in those hepatocytes exposed to a relatively high concentration of CHIR"}, {"measurement": "zone-specific sensitivity of cell viability to drug induced toxicity", "setting": "[2]", "result": "more sensitive to the acetaminophen induced toxicity"}, {"measurement": "liver histopathology by zone (H&E)", "setting": "[3]", "result": "increased mitosis (yellow triangle), necrosis (blue triangle) and inflammatory cell infiltration (green triangle) in the central vein of the liver (zone 3)"}]}
